Laboratory results taken from publication PMC10989020, “Preclinical characterization of a non-peptidomimetic HIV protease inhibitor with improved metabolic stability” (Antimicrobial Agents and Chemotherapy, 2024).
Like-named read-outs stand apart in the source and are kept apart here.

Columns and labels:
[1] = target: non-HIV aspartic proteases (BACE, cathepsin D, cathepsin E, pepsin, renin, and napsin); format: biochemical; details: IC50 considered equal to Ki(app)
Procedure: Except for the substrate used in the renin assay, all fluorogenic substrates and recombinant enzymes were purchased from R&D Systems and the assays were performed according to the manufacturer’s recommended procedure with minor changes. For the BACE1 assay, recombinant human BACE1 (50 nM) and test compound at various concentrations were added to a reaction buffer containing 20 mM sodium acetate at pH 4.8 with 0.06% Triton X-100 and 1% DMSO. After a 15-minute pre-incubation, the enzymatic reaction was initiated by the addition of fluorogenic substrate to a final concentration of 1 µM and a total volume of 100 µL. For the Cat D assay, after a 15-minute pre-incubation, the enzymatic reaction was initiated by the addition of the fluorogenic substrate to a final concentration of 4 µM and a total volume of 100 µL. […] Activated Cat E (0.5 nM) and test compound at various concentrations were added to the assay buffer containing 100 mM sodium acetate at pH 3.5 with 200 mM sodium chloride and 1% DMSO. After a 15-minute pre-incubation, the enzymatic reaction was initiated by the addition of the fluorogenic substrate to a final concentration of 20 µM and a total volume of 100 µL. […]
Enzymatic assay data were analyzed in GraphPad Prism (version 9.3.0) by curve fitting with a four-parameter logistic equation to determine inhibitor half-maximal inhibitory concentration (IC50) values.

[2] = system: HIV-1 Gag (p55) polyprotein cleavage; assay: Gag polyprotein processing immunoblot in transfected HEK293T cells; format: cell-based; details: 2 days post-transfection, anti-p24 immunoblot
[3] = Metabolic stability of radiolabeled GS-9770 in human liver microsomes; format: in vitro ADME; details: radiolabeled GS-9770, human liver microsomes
[4] = Predicted clearance from rat liver microsome fractions; format: in vitro ADME
[5] = Predicted clearance from dog liver microsome fractions; format: in vitro ADME
[6] = In vivo pharmacokinetics in dog; design: species or system Beagle dog
Procedure: (§1) Preclinical pharmacokinetic studies were performed in male Sprague–Dawley rats, beagle dogs, and cynomolgus monkeys (three animals per dosing group in each species) following federal and Institutional Animal Care and Use Committee (IACUC) guidelines as described previously ([32]). […] The oral fraction absorbed (F%) was calculated using the formula:
(§2) %F=( PO Dose AUC0−inf) x (IV Dose)/(IV Dose AUC0−inf) x (PO Dose)×100%

[7] = In vivo pharmacokinetics in monkey; details: cynomolgus monkey
Procedure: as §1, §2

[8] = system: HIV-1 BaL; assay: p24 production antiviral assay in CD4+ T-lymphocytes; format: cell-based; details: Human immunodeficiency virus 1, T-lymphocyte, HIV-1BaL infected
Description: (§3) Antiviral assays performed in HIV-1BaL infected CD4 +T-lymphocytes and monocyte-derived macrophages (MDMs) have been described previously ([18]). Cell-free supernatants derived from the CD4 +T cell and macrophage cultures were harvested 7- and 12-days post-infection, respectively, and the amount of HIV present was quantified by p24 antigen enzyme-linked immunosorbent assay (ELISA, Perkin Elmer, Waltham, MA) performed according to the manufacturer’s protocol.

[9] = system: HIV-1 BaL; assay: p24 production antiviral assay in monocyte-derived macrophages; format: cell-based; details: Human immunodeficiency virus 1, Macrophage, HIV-1BaL infected
Description: as §3

[10] = Cytotoxicity in monocyte-derived macrophages; format: cell-based; details: human, uninfected (mock infected) monocyte-derived macrophages
Procedure: (§4) Compound cytotoxicity assessment in MT-4 cells, primary CD4+ T lymphocytes, and MDMs was carried out using a protocol identical to the antiviral assay except uninfected cells were used and tested with higher concentration ranges of test compounds. Assessment of cytotoxicity in additional human cell lines (Gal-PC3, Gal-HepG2, HEp-2, Huh-7, MRC-5, HepG2-NTCP, Huh7-Lunet HCV 1b and 2a replicons, NHBE, A549-hACE2) and primary human PBMCs (resting and stimulated with PHA/IL-2) and hepatocytes have been described previously ([19]). For all cytotoxicity assays, the CC50 value for puromycin was determined as a positive internal control and to assess assay sensitivity in each cell type. The effect of tested compounds on cell viability was measured using a CellTiter-Glo readout, performed according to the manufacturer’s recommendations.

[11] = Cytotoxicity in HepG2-NTCP; format: cell-based; details: human, HepG2-NTCP cells
Procedure: as §4

[12] = in vitro; format: cell-based; details: human
Procedure: as §4

[13] = Cytotoxicity in A549-hACE2; format: cell-based; details: human, A549-hACE2 cells
Procedure: as §4

[14] = Cytotoxicity in Gal-PC3; format: cell-based; details: human, Gal-PC3 cells
Procedure: as §4

[15] = Cytotoxicity in Gal-HepG2; format: cell-based; details: human, Gal-HepG2 cells
Procedure: as §4

[16] = Cytotoxicity in HEp-2; format: cell-based; details: human, HEp-2 cells
Procedure: as §4

[17] = Cytotoxicity in primary human hepatocytes; format: cell-based
Procedure: as §4

[18] = Cytotoxicity in unstimulated PBMCs; format: cell-based; details: human, unstimulated (resting) PBMCs
Procedure: as §4

[19] = system: 20 HIV-1 clinical isolates; assay: Antiviral assay in PBMCs with HIV-1 clinical isolates (RT endpoint); format: cell-based; details: Human immunodeficiency virus 1, PBMC, 168 h, read-out: mean EC50
Procedure: Antiviral assays using fresh human PBMCs independently infected with a panel of clinical HIV-1 and HIV-2 isolates were performed by Southern Research as a contracted research study and assessed 7 days post-infection using reverse transcriptase (RT) endpoint assay. Antiviral assays using HIV-1 reporter viruses containing patient-derived sequences encoding all of PR and a portion of RT (amino acids 1–313) and conferring resistance to FDA-approved HIV PIs were performed by Monogram Biosciences Inc. (South San Francisco, CA) using their previously described Phenosense assay ([25]).

[20] = system: panel of 49 patient-derived HIV-1 reporter viruses with PI resistance-associated substitutions; format: cell-based
[21] = system: HIV-1 IIIb; assay: Dose-escalation resistance selection in MT-2 cells; format: cell-based
[22] = Repeated oral administration in dogs; format: in vivo; details: high doses
[23] = system: RSV; assay: RSV-Fluc reporter antiviral assay; details: human respiratory syncytial virus, NHBE
Procedure: (§5) The hepatitis B virus (HBV) surface antigen (HBsAg) antiviral assay was performed as previously described ([28]) using ND-654 as a positive control. The respiratory syncytial virus (RSV) A2 HEp-2 antiviral assay was performed as previously described ([29]) using YM-53403 as a positive control. The severe acute respiratory syndrome coronavirus 2 (SARS-CoV-2) antiviral assay was performed as described previously ([30]) using remdesivir as a positive control.

[24] = system: HBV; assay: microbe, parasite or virus in culture; details: Hepatitis B virus
Procedure: as §5

[25] = system: HCV-1b; assay: microbe, parasite or virus in culture; details: Hepatitis C virus, Huh-7
[26] = system: HCV-2a; assay: microbe, parasite or virus in culture; details: Hepatitis C virus, Huh-7
[27] = system: SARS-CoV-2; assay: SARS-CoV2-Nluc reporter antiviral assay; details: Severe acute respiratory syndrome coronavirus 2
Procedure: as §5

[28] = system: HBV, HCV, RSV, SARS-CoV-2; assay: Antiviral activity against panel of non-HIV viruses (summary); details: read-out: EC50 range across non-HIV viruses
Procedure: Antiviral assays using appropriate cell lines infected with non-HIV viruses were also performed. […] The hepatitis B virus (HBV) surface antigen (HBsAg) antiviral assay was performed as previously described ([28]) using ND-654 as a positive control. The respiratory syncytial virus (RSV) A2 HEp-2 antiviral assay was performed as previously described ([29]) using YM-53403 as a positive control. The severe acute respiratory syndrome coronavirus 2 (SARS-CoV-2) antiviral assay was performed as described previously ([30]) using remdesivir as a positive control.

In the case of CC(C)(CC1(c2ccc(-c3cnn(C4CC4)n3)cc2)NC(=N)N(C(COC(=O)NC2(C(F)F)CC2)c2ccc(Cl)c(-c3ncnn3C(F)F)c2)C1=O)C(F)(F)F (stereo not shown) [GS-9770], the Ki ([1]; read-out: Ki(app), lower end of range over six non-HIV proteases) is reported as 0.106 µM, the Ki ([1]; read-out: Ki(app), upper end of range over six non-HIV proteases) is reported as greater than 100 µM and the “concentration at which Gag polyprotein cleavage and release of mature p24 substantially reduced” value [2] is reported as 10 nM. The “concentration giving complete inhibition of p24 formation” value [2] was 100 nM, the “predicted human plasma clearance” value [3] was 1.5 mL/min/kg and the “in vitro predicted blood CL” value [4] was 1.2 mL/min/kg. For the same compound, the “in vitro predicted blood CL” value [5] was 12 mL/min/kg, the CL ([6]; 1 mg/kg IV, 1 mg/kg) was 18.3 ± 5 mL/min/kg and the “tolerability at the doses tested” value ([6]; 1 mg/kg IV, 4–5 mg/kg PO) was “well tolerated”. The bioavailability ([6]; beagle, plasma, 1 mg/kg IV and 5 mg/kg PO, read-out: F% (oral bioavailability)) was 100 ± 20%, the half-life ([6]; beagle, plasma, 1 mg/kg IV and 5 mg/kg PO, read-out: Terminal t1/2 (converted)) was 6.7 ± 0.6 h and the Vd ([6]; beagle, plasma, 1 mg/kg IV, read-out: Vss) was 5 ± 0.5 L/kg. The clearance ([6]; beagle, plasma, iv, 1 mg/kg, 1 mg/kg IV) was 18.8 mL/min/kg, the “tolerability at the doses tested” value ([7]; 1 mg/kg IV, 4–5 mg/kg PO) was “well tolerated” and the clearance ([7]; plasma, 1 mg/kg IV) was 5.67 mL/min/kg. It also gave a bioavailability ([7]; plasma, 1 mg/kg IV and 4 mg/kg PO, read-out: F% (oral bioavailability)) of 100 ± 34%, a half-life ([7]; plasma, 1 mg/kg IV and 4 mg/kg PO, read-out: Terminal t1/2 (converted)) of 7.4 ± 0.2 h and a Vd ([7]; plasma, 1 mg/kg IV, read-out: Vss) of 2.6 ± 0.8 L/kg. For the same compound, the EC50 [8] was 0.0085 ± 0.0025 µM, the EC50 [9] was 0.011 ± 0.014 µM and the CC50 [10] was 16 ± 3 µM. It also gave a CC50 [11] of 8.4 ± 2 µM, a CC50 [12] of 15.1 ± 3 µM and a CC50 [13] of 7.8 ± 2.1 µM. It also gave a CC50 [14] of 15 ± 4 µM, a CC50 [15] of 13 ± 6 µM and a CC50 [16] of 17 ± 2 µM. For the same compound, the CC50 [17] was 34 ± 16 µM, the CC50 [18] was 9.1 ± 5.5 µM and the EC50 [19] was 0.0073 µM. The loss in susceptibility ([20]; virus 8, virus 11 and virus 42) was 3 fold, the “mutant vs wild-type HIV EC50 FC” value ([20]; virus 13 (L10I, M46I, G48V, I50V, V82A, L90M)) was 21 fold and the “mutant vs wild-type HIV EC50 FC” value ([20]; virus 29 (L10F/L, D30N, I54V, N88D, L90M)) was 12 fold. For the same compound, the “mutant vs wild-type HIV EC50 FC” value ([20]; virus 43 (L10I, M46L, I54V, V82A)) was 11 fold, the “GS-9770 concentration at variant first emergence” value ([21]; variant L24I M46L A77I V82A) was 100 nM and the “GS-9770 concentration at variant first emergence” value ([21]; variant M46L A77I V82A) was 100 nM. For the same compound, the “finding after repeated oral administration” value [22] was “bronchoalveolar inflammation observed in the lungs of dogs”, the EC50 [23] was 2.5 ± 0.6 µM and the EC50 [24] was 11 ± 4 µM. It also gave an EC50 [25] of 10.8 ± 0.5 µM, an EC50 [26] of 10.4 ± 0.3 µM and an EC50 [27] of 5.3 ± 1.9 µM. For the same compound, the EC50 [28] was 2.5 to 34 µM.
